How the values were obtained:
[1] = molecular target: BCL-2 binding to BAD peptide (Homo sapiens, UniProt P10415); assay: BCL2 SPR solution inhibition assay, BAD peptide surface (Biacore A100); settings: read-out: BCL2_SPR IC50 BAD
Description: (§1) 33The present method includes utility of a Surface plasmon resonance (SPR)-based biosensor (Bia34core™′ GE Healthcare, Uppsala, Sweden) to characterize BCL-2 inhibitors. 35
(§2) 36Biacore™ utilizes the phenomenon of surface plasmon resonance (SPR) to detect and measure 37binding interactions. In a typical Biacore experiment, one of the interacting molecules (ligand) is i38mmobilized on a flexible dextran matrix while the interacting partner (analyte) is allowed to fl39ow across that surface. A binding interaction results in an increase in mass on the sensor surface 40and a corresponding direct change in the refractive index of the medium in the vicinity of the 41sensor surface. Changes in refractive index or signal are recorded in resonance units (R.U.) Signal 42changes due to association and dissociation of complexes are monitored in a non-invasive manne43r, continuously and in real-time, the results of which are reported in the form of a sensorgram.44
(§3) The SPR assay is con45figured to examine solution inhibition of BCL-2 binding to peptide derivatized sensor surfa46ces to generate IC50 values as a measure of inhibitor potency.
(§4) Biacore™ A100 (GE Healthcare, Uppsala, Sweden) was used to conduct all experiments reported herein. Sensor surface preparation and all interaction analyses experiments were performed at 25° C. Reagents were purchased from GE Healthcare. Running buffer containing 10 mM Hepes, pH7.4, 150 mM sodium chloride, 1.25 mM Dithiothreitol, 3% Dimethyl sulfoxide and 0.05% polysorbate 20 were utilized throughout all analyses.
(§5) Biotinylated BAK, BAD and NOXA peptides were diluted to 10 nM in running buffer and captured onto a sensor surface pre-derivatized with streptavidin (sensor chip SA) to peptide surface densities in the range 50-100 R.U. Peptide captured surfaces were blocked with 500 μM PEO2-Biotin.
(§6) Interaction analyses were performed by first equilibrating each sample within a 6 point three fold compound dilution series in the range 16 μM to […] with 56 nM BCL-2 for one hour during instrument start-up procedures. Protein compound mixtures were then injected over each peptide surface in parallel for 60 seconds at a flow-rate of 30 μL/min. 56 nM BCL-2 control samples were also prepared and run at regular intervals during the assay. Surface regeneration was performed at the end of each analysis cycle by two 30 second injections of 10 mM Glycine, pH 2.5, 1M Sodium Chloride, 0.05% polysorbate 20. Samples and control compound samples were run in duplicate and controls are also run at regular intervals during the assay to monitor surface and assay performance.
(§7) Data analyses are carried out using Biacore™ A100 evaluation software v1.1 to validate assay quality. Binding level report points were used relative to BCL-2 control samples to calculate % inhibition values for each compound protein mixture. […] The range of data shown in table 1 represents the high and low IC50 values obtained from multiple experiments.

[2] = molecular target: BCL-2 binding to BAK peptide (Homo sapiens, UniProt P10415); assay: BCL2 SPR solution inhibition assay, BAK peptide surface (Biacore A100); settings: read-out: BCL2_SPR IC50 BAK
Sequence of BCL-2 binding to BAK peptide (P10415 whole entry): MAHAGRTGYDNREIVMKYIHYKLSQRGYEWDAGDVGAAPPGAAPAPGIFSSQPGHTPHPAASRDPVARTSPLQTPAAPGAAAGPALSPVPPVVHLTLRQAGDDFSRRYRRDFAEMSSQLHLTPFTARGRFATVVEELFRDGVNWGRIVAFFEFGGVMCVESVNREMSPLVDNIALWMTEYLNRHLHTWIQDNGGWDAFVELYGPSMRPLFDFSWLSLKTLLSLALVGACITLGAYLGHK
Description: as §1, §2, §3, §4, §5, §6, §7

Sequence of BCL-2 binding to BAD peptide (P10415 whole entry): as above

| SMILES | IC50 [1] | IC50 [2] |
| --- | --- | --- |
| CCCCN(CCCC)C(=O)c1cc(C)n(-c2ccc(N3CCOCC3)cc2C(=O)N2Cc3ccccc3C[C@H]2CO)n1 [Example 1, (S)—N,N-dibutyl-1-(2-(3-(hydroxymethyl)-1,2,3,4-tetrahydroisoquinoline-2-carbonyl)-4-morpholinophenyl)-5-methyl-1H-pyrazole-3-carboxamide] | 1400 to 1520 nM | 725 to 860 nM |
| CCCCN(CCCC)C(=O)c1cc(C)n(-c2ccc(N3CCN(c4ccccc4)CC3=O)cc2C(=O)N2Cc3ccccc3C[C@H]2CO)n1 [Example 2, (S)—N,N-dibutyl-1-(2-(3-(hydroxymethyl)-1,2,3,4-tetrahydroisoquinoline-2-carbonyl)-4-(2-oxo-4-phenylpiperazin-1-yl)phenyl)-5-methyl-1H-pyrazole-3-carboxamide] | 4360 to 4620 nM | 3150 to 3300 nM |
| CCCCN(CCCC)C(=O)c1cc(C)n(-c2ccc(N3CCN(Cc4ccc(Cl)cc4)C(=O)C3)cc2C(=O)N2Cc3ccccc3C[C@H]2CO)n1 [Example 3, (S)—N,N-dibutyl-1-(4-(4-(4-chlorobenzyl)-3-oxopiperazin-1-yl)-2-(3-(hydroxymethyl)-1,2,3,4-tetrahydroisoquinoline-2-carbonyl)phenyl)-5-methyl-1H-pyrazole-3-carboxamide] | 474 to 506 nM | 512 to 515 nM |
| CCCCN(CCCC)C(=O)c1cc(C)n(-c2ccc(-c3cccc(C(=O)O)c3)cc2C(=O)N2Cc3ccccc3C[C@H]2CO)n1 [Example 4, (S)-4′-(3-(dibutylcarbamoyl)-5-methyl-1H-pyrazol-1-yl)-3′-(3-(hydroxymethyl)-1,2,3,4-tetrahydroisoquinoline-2-carbonyl)-[1,1′-biphenyl]-3-carboxylic acid] | 110 to 119 nM | 86.6 to 91 nM |
| CCCCN(CCCC)C(=O)c1nn(-c2ccc(-c3cccnc3)cc2C(=O)N2Cc3ccccc3C[C@H]2CO)c(C)c1Cl [Example 5] | 218 to 236 nM | 253 to 262 nM |
| CCCCN(CCCC)C(=O)c1nn(-c2ccc(-c3ccc(N)nc3)cc2C(=O)N2Cc3ccccc3C[C@H]2CO)c(C)c1Cl [Example 6] | 231 to 288 nM | 210 to 252 nM |
| CCCCN(CCCC)C(=O)c1nn(-c2ccc(-c3cc[nH]n3)cc2C(=O)N2Cc3ccccc3C[C@H]2CO)c(C)c1Cl [Example 7] | 739 to 770 nM | 609 to 613 nM |
| CCCCN(CCCC)C(=O)c1nn(-c2ccc(-c3ccc(N(C)C)nc3)cc2C(=O)N2Cc3ccccc3C[C@H]2CO)c(C)c1Cl [Example 8] | 745 to 750 nM | 767 to 786 nM |
| CCCCN(CCCC)C(=O)c1nn(-c2ccc(-c3ccncc3OC)cc2C(=O)N2Cc3ccccc3C[C@H]2CO)c(C)c1Cl [Example 9] | 773 to 905 nM | 703 to 902 nM |
| CCCCN(CCCC)C(=O)c1nn(-c2ccc(-c3ccc(OC)nc3)cc2C(=O)N2Cc3ccccc3C[C@H]2CO)c(C)c1Cl [Example 10] | 843 to 958 nM | 790 to 906 nM |
| CCCCN(CCCC)C(=O)c1nn(-c2ccc(-c3ccccc3)cc2C(=O)N2Cc3ccccc3C[C@H]2CO)c(C)c1Cl [Example 11] | 1480 to 1580 nM | 1400 to 1490 nM |
| CCCCN(CCCC)C(=O)c1nn(-c2ccc(-c3cnn(Cc4ccccc4)c3)cc2C(=O)N2Cc3ccccc3C[C@H]2CO)c(C)c1Cl [Example 12] | 127 to 148 nM | 103 to 115 nM |
| CCCCN(CCCC)C(=O)c1cc(C)n(-c2ccc(-c3ccc(C(=O)O)cc3)cc2C(=O)N2Cc3ccccc3C[C@H]2CO)n1 [Example 13] | 133 to 165 nM | 105 to 129 nM |
| CCCCN(CCCC)C(=O)c1nn(-c2ccc(-c3cn[nH]c3)cc2C(=O)N2Cc3ccccc3C[C@H]2CO)c(C)c1Cl [Example 14] | 277 to 315 nM | 189 to 213 nM |
| CCCCN(CCCC)C(=O)c1cc(C)n(-c2ccc(N3CCN(c4ccccc4)CC3)cc2C(=O)N2Cc3ccccc3C[C@H]2CO)n1 [Example 15] | 668 to 770 nM | 552 to 713 nM |
| CCCCN(CCCC)C(=O)c1cc(C)n(-c2ccc(N3CCN(C(=O)OC(C)(C)C)CC3=O)cc2C(=O)N2Cc3ccccc3C[C@H]2CO)n1 [Example 16] | 2020 to 2210 nM | 1340 to 1450 nM |
| CCCCN(CCCC)C(=O)c1cc(C)n(-c2ccc(N3CCN(C)CC3)cc2C(=O)N2Cc3ccccc3C[C@H]2CO)n1 [Example 17] | 2640 to 3050 nM | 1570 to 1640 nM |

The next lines start with the values.

| IC50 [1] | IC50 [2] | SMILES |
| --- | --- | --- |
| 2360 to 2740 nM | 1650 to 1930 nM | CCCCN(CCCC)C(=O)c1cc(C)n(-c2ccc(N3CCCCC3)cc2C(=O)N2Cc3ccccc3C[C@H]2CO)n1 [Example 18] |
| 11200 to 12200 nM | 6060 to 6600 nM | CCCCN(CCCC)C(=O)c1cc(C)n(-c2ccc(N3CCOCC3=O)cc2C(=O)N2Cc3ccccc3C[C@H]2CO)n1 [Example 19] |
| 136 to 143 nM | 119 to 137 nM | CCCCN(CCCC)C(=O)c1cc(C)n(-c2ccc(N3CCN(Cc4ccccc4)C(=O)C3)cc2C(=O)N2Cc3ccccc3C[C@H]2CO)n1 [Example 20] |
| 180 to 202 nM | 179 to 190 nM | CCCCN(CCCC)C(=O)c1cc(C)n(-c2ccc(N3CCN(Cc4ccccc4Cl)C(=O)C3)cc2C(=O)N2Cc3ccccc3C[C@H]2CO)n1 [Example 21] |
| 202 to 231 nM | 220 to 272 nM | CCCCN(CCCC)C(=O)c1cc(C)n(-c2ccc(N3CCN(Cc4ccccc4)CC3)cc2C(=O)N2Cc3ccccc3C[C@H]2CO)n1 [Example 22] |
| 162 nM | 148 to 155 nM | CCCCN(CCCC)C(=O)c1cc(C)n(-c2ccc(N3CCN(Cc4cccc(Cl)c4)C(=O)C3)cc2C(=O)N2Cc3ccccc3C[C@H]2CO)n1 [Example 23] |
| 3010 to 3410 nM | 3360 to 4630 nM | CCCCN(CCCC)C(=O)c1cc(C)n(-c2ccc(-c3ccccc3F)cc2C(=O)N2Cc3ccccc3C[C@H]2CO)n1 [Example 24] |
| 223 to 224 nM | 159 to 171 nM | CCCCN(CCCC)C(=O)c1cc(C)n(-c2ccc(-c3ccc(C(=O)N4CCCC4)c(F)c3)cc2C(=O)N2Cc3ccccc3C[C@H]2CO)n1 [Example 25] |
| 584 to 672 nM | 437 to 484 nM | CCCCN(CCCC)C(=O)c1cc(C)n(-c2ccc(-c3ccc(S(=O)(=O)N4CCCCC4)cc3)cc2C(=O)N2Cc3ccccc3C[C@H]2CO)n1 [Example 26] |
| 744 to 783 nM | 520 to 599 nM | CCCCN(CCCC)C(=O)c1cc(C)n(-c2ccc(-c3cccc(Cl)c3)cc2C(=O)N2Cc3ccccc3C[C@H]2CO)n1 [Example 27] |
| 919 to 1070 nM | 802 to 913 nM | CCCCN(CCCC)C(=O)c1cc(C)n(-c2ccc(-c3ccc(F)c(C)c3)cc2C(=O)N2Cc3ccccc3C[C@H]2CO)n1 [Example 28] |
| 767 to 820 nM | 563 to 621 nM | CCCCN(CCCC)C(=O)c1cc(C)n(-c2ccc(-c3ccc(OC)c(C)c3)cc2C(=O)N2Cc3ccccc3C[C@H]2CO)n1 [Example 29] |
| 651 to 676 nM | 510 to 591 nM | CCCCN(CCCC)C(=O)c1cc(C)n(-c2ccc(-c3ccc(OC)c(Cl)c3)cc2C(=O)N2Cc3ccccc3C[C@H]2CO)n1 [Example 30] |
| 177 to 178 nM | 140 to 142 nM | CCCCN(CCCC)C(=O)c1cc(C)n(-c2ccc(-c3cnc4ccccc4c3)cc2C(=O)N2Cc3ccccc3C[C@H]2CO)n1 [Example 31] |
| 410 to 465 nM | 359 to 375 nM | CCCCN(CCCC)C(=O)c1cc(C)n(-c2ccc(-c3ccc(F)c(C#N)c3)cc2C(=O)N2Cc3ccccc3C[C@H]2CO)n1 [Example 32] |
| 455 to 553 nM | 339 to 434 nM | CCCCN(CCCC)C(=O)c1cc(C)n(-c2ccc(-c3ccc(NC(C)=O)cc3)cc2C(=O)N2Cc3ccccc3C[C@H]2CO)n1 [Example 33] |
| 600 to 623 nM | 426 to 429 nM | CCCCN(CCCC)C(=O)c1cc(C)n(-c2ccc(-c3ccc(Cl)c(C(N)=O)c3)cc2C(=O)N2Cc3ccccc3C[C@H]2CO)n1 [Example 34] |
| 515 to 547 nM | 357 to 366 nM | CCCCN(CCCC)C(=O)c1cc(C)n(-c2ccc(-c3ccc(Cl)c(C(=O)NC)c3)cc2C(=O)N2Cc3ccccc3C[C@H]2CO)n1 [Example 35] |
| 837 to 848 nM | 741 to 759 nM | CCCCN(CCCC)C(=O)c1cc(C)n(-c2ccc(-c3cccc(OC(F)(F)F)c3)cc2C(=O)N2Cc3ccccc3C[C@H]2CO)n1 [Example 36] |
| 312 to 319 nM | 239 to 240 nM | CCCCN(CCCC)C(=O)c1cc(C)n(-c2ccc(-c3ccc(C(=O)NCC)c(F)c3)cc2C(=O)N2Cc3ccccc3C[C@H]2CO)n1 [Example 37] |
| 885 to 891 nM | 632 to 656 nM | CCCCN(CCCC)C(=O)c1cc(C)n(-c2ccc(-c3cccc(S(C)(=O)=O)c3)cc2C(=O)N2Cc3ccccc3C[C@H]2CO)n1 [Example 38] |

— patent publication US20140350014A1, “COMPOUNDS FOR INHIBITING THE INTERACTION OF BCL2 WITH BINDING PARTNERS” (NOVARTIS AG, priority 2011, published 2014)
